In the assay the test system is BDF1 mice, B16 melanoma ip, median survival T/C. Put plainly: NCI In Vivo Anticancer Drug Screen. Data for tumor model B16 Melanoma (intraperitoneal) in B6D2F1 (BDF1) mice. Conditions: endpoint: median survival time, higher = longer survival. The method in brief: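 Each result divides a survival or tumor-size measurement in the compound-treated group by the same measurement in the vehicle group.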

[1] abbreviates: dose: 100.0 mg/kg/injection, schedule: Q01DX009 (ip), vehicle: Klucel (hydroxypropylcellulose) (HPC).
Setting [2] is: dose: 200.0 mg/kg/injection, schedule: Q01DX009 (ip), vehicle: Klucel (hydroxypropylcellulose) (HPC).
Where [3] appears, read: dose: 400.0 mg/kg/injection, schedule: Q01DX009 (ip), vehicle: Klucel (hydroxypropylcellulose) (HPC).
Setting [4] is: dose: 25.0 mg/kg/injection, schedule: Q01DX009 (ip), vehicle: Klucel (hydroxypropylcellulose) (HPC).

Values joined by “and” are separate entries in the source; they are usually repeats but may differ in a detail not shown here. Equal values may be shown once. Toxic doses and inconclusive results are not listed.

The results in this text go back to PubChem BioAssay AID192 (DTP/NCI, 2004).

Turning to `Oc1ccc(/C=N/Nc2nnc(N/N=C/c3ccc(O)cc3O)c3ccccc23)c(O)c1`, the T/C by setting is: (dose: 3.13 mg/kg/injection, schedule: Q01DX009 (ip), vehicle: suspension in saline) 101 % of control; (dose: 6.25 mg/kg/injection, schedule: Q01DX009 (ip), vehicle: suspension in saline) 98 % of control; (dose: 12.5 mg/kg/injection, schedule: Q01DX009 (ip), vehicle: suspension in saline) 89 % of control; (dose: 25.0 mg/kg/injection, schedule: Q01DX009 (ip), vehicle: suspension in saline) 90 % of control.

Regarding `CCC/C=C/C(C)C`, the T/C reads like this: under setting [1], 95 % of control; under setting [2], 88 % of control; under setting [3], 95 % of control.

For `CC(=O)OCC1OC([Se][As](C)C)C(OC(C)=O)C(OC(C)=O)C1OC(C)=O` (configuration not stated), the T/C is 88 % of control (dose: 3.13 mg/kg/injection, schedule: Q01DX009 (ip), vehicle: saline with Tween-80); 100 % of control (dose: 6.25 mg/kg/injection, schedule: Q01DX009 (ip), vehicle: saline with Tween-80); 90 % of control (dose: 12.5 mg/kg/injection, schedule: Q01DX009 (ip), vehicle: saline with Tween-80).

For `O=C(Nc1cc(C(F)(F)F)ccc1Cl)c1ccccc1`, the T/C reads like this: under setting [1], 94 % of control; under setting [2], 91 % of control; under setting [3], 94 % of control.

Consider `Cc1ccc(NCCN(C)C)c2c(=O)c3cc(O)ccc3sc12`, for which the T/C was 119 % of control (dose: 3.0 mg/kg/injection, schedule: Q01DX009 (ip), vehicle: Klucel (hydroxypropylcellulose) (HPC)); 157 % of control (dose: 12.0 mg/kg/injection, schedule: Q01DX009 (ip), vehicle: Klucel (hydroxypropylcellulose) (HPC)); 160 % of control (dose: 24.0 mg/kg/injection, schedule: Q01DX009 (ip), vehicle: Klucel (hydroxypropylcellulose) (HPC)); 162 % of control under setting [4].

With `CO[C@H](C(=O)[C@@H](O)[C@@H](C)O)[C@@H]1Cc2cc3cc(OC4CC(OC5CC(O)C(O)C(C)O5)C(O)C(C)O4)c(C)c(O)c3c(O)c2C(=O)[C@H]1OC1CC(OC2CC(OC3CC(C)(O)C(O)C(C)O3)C(O)C(C)O2)C(O)C(C)O1` (some centres not stated), the T/C is, setting by setting: (dose: 0.02 mg/kg/injection, schedule: Q01DX009 (ip), vehicle: water) 103 % of control; (dose: 0.05 mg/kg/injection, schedule: Q01DX009 (ip), vehicle: water) 106 % of control; (dose: 0.06 mg/kg/injection, schedule: Q01DX009 (ip), vehicle: saline) 101 % of control; (dose: 0.1 mg/kg/injection, schedule: Q01DX009 (ip), vehicle: water) 100 % of control and 103 % of control; (dose: 0.12 mg/kg/injection, schedule: Q01DX009 (ip), vehicle: saline) 101 % of control; (dose: 0.12 mg/kg/injection, schedule: Q01DX009 (ip), vehicle: water) 96 % of control. Further, the T/C is 100 % of control (dose: 0.13 mg/kg/injection, schedule: Q01DX009 (ip), vehicle: clinical formulation); 100 % of control and 109 % of control (dose: 0.13 mg/kg/injection, schedule: Q01DX009 (ip), vehicle: saline); 94 % of control (dose: 0.13 mg/kg/injection, schedule: Q01DX009 (ip), vehicle: water); 111 % of control (dose: 0.2 mg/kg/injection, schedule: Q01DX009 (ip), vehicle: water); 102 % of control (dose: 0.25 mg/kg/injection, schedule: Q01DX009 (ip), vehicle: clinical formulation); 100 % of control and 104 % of control and 111 % of control (dose: 0.25 mg/kg/injection, schedule: Q01DX009 (ip), vehicle: saline). The T/C (dose: 0.25 mg/kg/injection, schedule: Q01DX009 (ip), vehicle: water) is 98 % of control; the T/C (dose: 0.4 mg/kg/injection, schedule: Q01DX009 (ip), vehicle: water) is 111 % of control; the T/C (dose: 0.5 mg/kg/injection, schedule: Q01DX009 (ip), vehicle: clinical formulation) was 100 % of control; the T/C (dose: 0.5 mg/kg/injection, schedule: Q01DX009 (ip), vehicle: saline) was 97 % of control and 105 % of control and 121 % of control; the T/C (dose: 0.5 mg/kg/injection, schedule: Q01DX009 (ip), vehicle: water) was 98 % of control; the T/C (dose: 0.6 mg/kg/injection, schedule: Q01DX009 (ip), vehicle: water) is 102 % of control. Besides, the T/C was 104 % of control (dose: 0.75 mg/kg/injection, schedule: Q01DX009 (ip), vehicle: saline); 105 % of control (dose: 1.0 mg/kg/injection, schedule: Q01DX009 (ip), vehicle: clinical formulation); 97 % of control and 106 % of control and 109 % of control (dose: 1.0 mg/kg/injection, schedule: Q01DX009 (ip), vehicle: saline); 98 % of control (dose: 62.0 micrograms/kg/injection, schedule: Q01DX009 (ip), vehicle: saline); 105 % of control (dose: 125.0 micrograms/kg/injection, schedule: Q01DX009 (ip), vehicle: saline); 94 % of control (dose: 125.0 micrograms/kg/injection, schedule: Q01DX009 (ip), vehicle: water). Further, the T/C is, setting by setting: (dose: 250.0 micrograms/kg/injection, schedule: Q01DX009 (ip), vehicle: saline) 119 % of control; (dose: 500.0 micrograms/kg/injection, schedule: Q01DX009 (ip), vehicle: saline) 111 % of control; (dose: 500.0 micrograms/kg/injection, schedule: Q01DX009 (ip), vehicle: water) 110 % of control; (dose: 1000.0 micrograms/kg/injection, schedule: Q01DX009 (ip), vehicle: saline) 115 % of control; (dose: 1000.0 micrograms/kg/injection, schedule: Q01DX009 (ip), vehicle: water) 109 % of control.

As for `CN(C)c1ccc(N=C2C=CC(=O)C=C2)cc1`, the T/C was 111 % of control (dose: 1.5 mg/kg/injection, schedule: Q01DX009 (ip), vehicle: saline); 98 % of control (dose: 3.0 mg/kg/injection, schedule: Q01DX009 (ip), vehicle: saline); 105 % of control (dose: 6.0 mg/kg/injection, schedule: Q01DX009 (ip), vehicle: saline).

Take `CCC(=O)N(C)[C@@H](C)C(=O)O[C@H]1CC(=O)N(C)c2cc(cc(OC)c2Cl)C/C(C)=C/C=C[C@@H](OC)[C@@]2(O)C[C@H](OC(=O)N2)[C@@H](C)[C@@H]2O[C@@]12C`: the T/C (dose: 2.5 micrograms/kg/injection, schedule: Q01DX009 (ip), vehicle: saline + alcohol) is 156 % of control; the T/C (dose: 3.8 micrograms/kg/injection, schedule: Q01DX009 (ip), vehicle: saline + alcohol) was 171 % of control; the T/C (dose: 5.0 micrograms/kg/injection, schedule: Q01DX009 (ip), vehicle: saline + alcohol) was 167 % of control and 171 % of control; the T/C (dose: 7.5 micrograms/kg/injection, schedule: Q01DX009 (ip), vehicle: saline + alcohol) was 191 % of control; the T/C (dose: 10.0 micrograms/kg/injection, schedule: Q01DX009 (ip), vehicle: saline + alcohol) is 168 % of control and 181 % of control; the T/C (dose: 15.0 micrograms/kg/injection, schedule: Q01DX009 (ip), vehicle: saline + alcohol) was 151 % of control and 196 % of control. The T/C (dose: 30.0 micrograms/kg/injection, schedule: Q01DX009 (ip), vehicle: saline + alcohol) was 103 % of control.

In the case of `CC(=O)NNC(=O)c1ccccc1`, the T/C is 93 % of control (dose: 12.5 mg/kg/injection, schedule: Q#A X018 (ip), vehicle: water); 93 % of control (dose: 25.0 mg/kg/injection, schedule: Q#A X018 (ip), vehicle: water); 106 % of control (dose: 50.0 mg/kg/injection, schedule: Q#A X018 (ip), vehicle: water).

For the compound `COc1cc(C(=O)Nc2ccc(N(C)C)cc2)cc(OC)c1OC`, the T/C is 119 % of control (dose: 12.5 mg/kg/injection, schedule: Q04DX003 (ip), vehicle: saline); 116 % of control (dose: 50.0 mg/kg/injection, schedule: Q04DX003 (ip), vehicle: saline); 108 % of control (dose: 200.0 mg/kg/injection, schedule: Q04DX003 (ip), vehicle: saline).

`CC(=O)CC(=O)NCCN1CCN=C1C`: the T/C is 109 % of control (dose: 100.0 mg/kg/injection, schedule: Q01DX009 (ip), vehicle: saline); 116 % of control (dose: 200.0 mg/kg/injection, schedule: Q01DX009 (ip), vehicle: saline); 110 % of control (dose: 400.0 mg/kg/injection, schedule: Q01DX009 (ip), vehicle: saline).

Take `COc1ccc(/C=C2\C(=O)OC(=O)\C2=C\c2ccc(OC)c(OC)c2)cc1OC`: the T/C reads like this: (dose: 12.5 mg/kg/injection, schedule: Q01DX009 (ip), vehicle: Klucel (hydroxypropylcellulose) (HPC)) 98 % of control; under setting [4], 90 % of control.
